Our source for the CC50, killing and LC50 values is paper PMC6155662, “Trypanocidal Activity of Quinoxaline 1,4 Di-N-oxide Derivatives as Trypanothione Reductase Inhibitors” (Molecules : A Journal of Synthetic Chemistry and Natural …, 2017).

Where two headings read alike, the source gives them in different places.

The subject of data set [1] is T. cruzi bloodstream trypomastigotes INC-5 strain. The data set is described as follows: microbe, parasite or virus in culture. The data set is classed as cell-based. The following applies: for CC50: bloodstream trypomastigotes, 24 h at 4 °C (called IC50 in abstract), read-out: LC50 INC-5 Strain. As to the method:
(§1) In this study, two strains of T. cruzi isolated in Mexico were used. T. cruzi NINOA strain (MHOM/MX/1994/NINOA) was obtained from a patient with acute Chagas disease and T. cruzi INC-5 (MHOM/MX/1994/INC5) was isolated from a patient in the chronic phase of the disease. Epimastigotes were cultured in vitro in liver infusion-tryptose (LIT) medium supplemented with 10% heat inactivated fetal bovine serum (FBS) (Gibco) and 100 U/mL penicillin-streptomycin (In vitro S.A.), and incubated at 27 °C. CD1 mice, aged 6–8 weeks, were infected with T. cruzi to obtain bloodstream trypomastigote samples. Animal experiments were performed according to Norma Oficial Mexicana (NOM-062-Z00-1999) published on 22 August, 2009.
(§2) CD1 female mice 6–8 weeks old were infected with T. cruzi bloodstream trypomastigotes of the INC-5 and NINOA strains. The course of infection continued for 4–6 weeks. At the peak of parasitemia blood was obtained by cardiac puncture using sodium heparin as an anticoagulant. The blood was adjusted to 1 × 10^6 bloodstream trypomastigotes/mL.
(§3) In each well of the 96-well plate, 195 μL of infected blood and 5 μL of quinoxaline 1,4-di-N-oxide derivatives or reference drug dilutions were seeded, with each well reaching a final volume of 200 µL. Each assay was performed in triplicate. Initially, all compounds were tested at 50 μg/mL. […] As a negative control of lysis, wells with untreated blood trypomastigotes were used, and as a positive control, wells with the reference drugs were used. The microplates were incubated at 4 °C for 24 h. Bloodstream trypomastigotes were quantified by the method of Brener-Pizzi, 5 μL of blood were placed on a slide and covered with a coverslip 13 × 13 mm. The mobile protozoa were counted in 15 fields at 40× magnification using an optical microscope. The percentage lysis was determined by comparing the remaining trypomastigotes against the negative control. LC50 was determined with the Probit statistical tool. The results were later converted to micromolar units.

In data set [2] the test system is T. cruzi bloodstream trypomastigotes NINOA strain. The data set is described as follows: microbe, parasite or virus in culture. The data set is classed as cell-based. The following applies: Trypanosoma cruzi. As to the method: as §1, §2, §3

Consider `CC(C)OC(=O)c1ccc2c(c1)[n+]([O-])c(C(=O)C(C)C)c(C(F)(F)F)[n+]2[O-]` [Compound T-085, Isopropyl 2-isobutyryl-3-trifluoromethylquinoxaline-7-carboxylate 1,4-di-N-oxide], for which the CC50 in data set [1] (Trypanosoma cruzi, 24 h) is 73 µM; in data set [1], 73.1 ± 12.4 µM. Also, the killing at 50 µg/mL stood at 76.2 ± 1.2% in data set [1] (Trypanosoma cruzi, 50 μg/mL, 24 h at 4 °C, infected mouse blood, read-out: % Lysis at 50 μg/mL INC-5 Strain) and 74.2 ± 6.4% in data set [2] (50 μg/mL, 24 h at 4 °C, infected mouse blood, read-out: % Lysis at 50 μg/mL NINOA Strain). Besides, the LC50 (as a rule, the concentration that kills 50% of the test population) in data set [2] (24 h) came out at 59.9 ± 7.9 µM.
